Data reported in ChEMBL document CHEMBL4312020, “Design, synthesis and biological evaluation of oseltamivir derivatives containing pyridyl group as potent inhibitors of neuraminidase for influenza A” (Eur J Med Chem, 2020).

Legend:
[1] = target: Neuraminidase (Influenza A virus (A/Puerto Rico/8/1934(H1N1))) (UniProt P03468); conditions: Influenza A virus (A/Anhui/1/2005(H5N1)); at 100 µM
[2] = target: Neuraminidase (Influenza A virus (A/Puerto Rico/8/1934(H1N1))) (UniProt P03468); conditions: Influenza A virus (A/Anhui/1/2005(H5N1)); at 10 µM
[3] = target: Neuraminidase (Influenza A virus (A/Puerto Rico/8/1934(H1N1))) (UniProt P03468); conditions: Influenza A virus (A/Anhui/1/2005(H5N1)); at 1 µM
[4] = Inhibition of Influenza A virus A/Taiwan/3446/2002(H3N2) Neuraminidase using MU-NANA as substrate preincubated for 30 mins followed by substrate addition and measured after 1 hr by spectrofluorometry relative to control
[5] = target: Neuraminidase (Influenza A virus (A/Puerto Rico/8/1934(H1N1)), UniProt P03468); assay: Inhibition of Influenza A virus A/WSN/1933(H1N1) Neuraminidase using MU-NANA as substrate preincubated for 30 mins followed by substrate addition and measured after 1 hr by spectrofluorometry relative to control
Neuraminidase (Influenza A virus (A/Puerto Rico/8/1934(H1N1)), UniProt P03468), sequence (P03468 whole entry): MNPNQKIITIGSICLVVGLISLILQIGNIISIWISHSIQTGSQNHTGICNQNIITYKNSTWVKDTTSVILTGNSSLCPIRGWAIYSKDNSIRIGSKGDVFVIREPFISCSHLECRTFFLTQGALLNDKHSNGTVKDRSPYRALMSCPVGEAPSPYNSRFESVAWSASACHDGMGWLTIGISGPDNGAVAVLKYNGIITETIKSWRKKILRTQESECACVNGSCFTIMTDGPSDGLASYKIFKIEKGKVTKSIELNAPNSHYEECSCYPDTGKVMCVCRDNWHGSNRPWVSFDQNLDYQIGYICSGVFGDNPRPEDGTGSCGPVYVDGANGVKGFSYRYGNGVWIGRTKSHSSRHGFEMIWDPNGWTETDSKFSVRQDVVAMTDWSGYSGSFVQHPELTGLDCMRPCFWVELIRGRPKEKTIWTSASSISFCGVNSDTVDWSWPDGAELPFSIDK

[6] = AUC in Sprague-Dawley rat at 50 mg/kg, po measured upto 24 hrs by LC-MS/MS analysis; format: ADME, organism-based; design: dose 50 mg/kg, time < 24 hr, route oral; conditions: in vivo
[7] = Half life in Sprague-Dawley rat at 10 mg/kg, iv measured upto 24 hrs by LC-MS/MS analysis; format: ADME, organism-based; conditions: in vivo
[8] = MRT in Sprague-Dawley rat at 10 mg/kg, iv measured upto 24 hrs by LC-MS/MS analysis; format: ADME, organism-based; conditions: in vivo
in vitro [9] = conditions: rat, liver microsomes
[10] = Half life in Sprague-Dawley rat at 50 mg/kg, po measured upto 24 hrs by LC-MS/MS analysis; format: ADME, organism-based; conditions: in vivo
in vitro [11] = conditions: human, liver microsomes
[12] = Oral bioavailability in Sprague-Dawley rat at 50 mg/kg measured upto 24 hrs by LC-MS/MS analysis; format: ADME, organism-based; conditions: in vivo
[13] = Stability in human plasma assessed as compound remaining incubated for 0 mins by LC-MS/MS analysis; format: ADME, cell-free; conditions: read-out: Stability
[14] = Stability in human plasma assessed as compound remaining incubated for 10 mins by LC-MS/MS analysis; format: ADME, cell-free; conditions: read-out: Stability
[15] = MRT in Sprague-Dawley rat at 50 mg/kg, po measured upto 24 hrs by LC-MS/MS analysis; format: ADME, organism-based; conditions: in vivo
Influenza A virus [16] = assay: microbe, parasite or virus in culture; conditions: A/Puerto Rico/8/1934(H1N1), MDCK, 72 h
in vitro [17] = conditions: rat, liver microsomes; remark: listed apart in the source
Influenza A virus [18] = assay: microbe, parasite or virus in culture; conditions: (A/LiaoNing-ZhenXing/1109/2010(H1N1), MDCK, 72 h
[19] = Stability in human plasma assessed as compound remaining incubated for 120 mins by LC-MS/MS analysis; format: ADME, cell-free; conditions: read-out: Stability
[20] = Tmax in Sprague-Dawley rat at 50 mg/kg, po measured upto 24 hrs by LC-MS/MS analysis; format: ADME, organism-based; conditions: in vivo
[21] = Bioavailability in Sprague-Dawley rat at 10 mg/kg, iv measured upto 24 hrs by LC-MS/MS analysis; format: ADME, organism-based; conditions: in vivo
[22] = AUC in Sprague-Dawley rat at 10 mg/kg, iv measured upto 24 hrs by LC-MS/MS analysis; format: ADME, organism-based; design: dose 10 mg/kg, time < 24 hr, route intravenous; conditions: in vivo
[23] = Stability in human plasma assessed as compound remaining incubated for 60 mins by LC-MS/MS analysis; format: ADME, cell-free; conditions: read-out: Stability
in vitro [24] = conditions: human, liver microsomes; remark: listed apart in the source
[25] = Cmax in Sprague-Dawley rat at 50 mg/kg, po measured upto 24 hrs by LC-MS/MS analysis; format: ADME, organism-based; design: dose 50 mg/kg, route oral; conditions: in vivo
[26] = target: Neuraminidase (Influenza A virus (A/Puerto Rico/8/1934(H1N1)), UniProt P03468); design: species or system Influenza A virus (A/Anhui/1/2005(H5N1))
[27] = Stability in human plasma assessed as compound remaining incubated for 30 mins by LC-MS/MS analysis; format: ADME, cell-free; conditions: read-out: Stability
in vitro [28] = conditions: dog, MDCK cells

Neuraminidase (Influenza A virus (A/Puerto Rico/8/1934(H1N1))), sequence (P03468 whole entry): as above

Structure (SMILES): CCC(CC)O[C@@H]1C=C(C(=O)O)C[C@H](Nc2ncccc2NC(=O)c2ccccc2)[C@H]1NC(C)=O
- inhibition [1]: 7.6%

Structure (SMILES): CCC(CC)O[C@@H]1C=C(C(=O)O)C[C@H](Nc2ncc(Br)cc2NC(C)=O)[C@H]1NC(C)=O
- inhibition [1]: 46.7%

Structure (SMILES): CCC(CC)O[C@@H]1C=C(C(=O)O)C[C@H](Nc2nc(OC)ccc2N)[C@H]1NC(C)=O
- inhibition [1]: 81.4%
- inhibition [2]: 41.3%

Structure (SMILES): CCC(CC)O[C@@H]1C=C(C(=O)O)C[C@H](Nc2ncc(Br)cc2NC(=O)c2ccccc2)[C@H]1NC(C)=O
- inhibition [1]: 36.9%

Structure (SMILES): CCC(CC)O[C@@H]1C=C(C(=O)O)C[C@H](Nc2ccc(N)cn2)[C@H]1NC(C)=O
- inhibition [1]: 67.7%
- inhibition [2]: 30%

Structure (SMILES): CCCC(=O)Nc1ccc(OC)nc1N[C@H]1CC(C(=O)O)=C[C@@H](OC(CC)CC)[C@@H]1NC(C)=O
- inhibition [3]: 16%
- inhibition [1]: 76.3%

Structure (SMILES): CCC(CC)O[C@@H]1C=C(C(=O)O)C[C@H](Nc2nc(OC)ccc2[N+](=O)[O-])[C@H]1NC(C)=O
- inhibition [3]: 27.9%
- inhibition [1]: 82.9%

Structure (SMILES): CCC(CC)O[C@@H]1C=C(C(=O)O)C[C@H](Nc2ccc(NC(=O)c3ccccc3)cn2)[C@H]1NC(C)=O
- inhibition [1]: 18.6%

Structure (SMILES): CCC(CC)O[C@@H]1C=C(C(=O)O)C[C@H](Nc2nc(OC)ccc2NC(=O)c2ccccc2)[C@H]1NC(C)=O
- inhibition [1]: 70.6%

Structure (SMILES): CCC(CC)O[C@@H]1C=C(C(=O)O)C[C@H](Nc2nccc(C)c2N)[C@H]1NC(C)=O
- inhibition [1]: 24.2%
- inhibition [2]: 10.7%

Structure (SMILES): CC(=O)N[C@H]1[C@H]([C@H](O)[C@H](O)CO)OC(C(=O)O)=C[C@@H]1NC(=N)NC(=O)CSc1cccc2ccccc12
- IC50 [4]: 0.0029 µM
- IC50 [5]: 0.0023 µM

Structure (SMILES): CCC(=O)Nc1ccc(OC)nc1N[C@H]1CC(C(=O)O)=C[C@@H](OC(CC)CC)[C@@H]1NC(C)=O
- inhibition [1]: 10.7%

Structure (SMILES): CCC(CC)O[C@@H]1C=C(C(=O)O)C[C@H](Nc2ccc(NC(C)=O)cn2)[C@H]1NC(C)=O
- inhibition [3]: 9.6%
- inhibition [1]: 38.7%

Structure (SMILES): CCC(CC)O[C@@H]1C=C(C(=O)O)C[C@H](Nc2ncc(C)cc2N)[C@H]1NC(C)=O
- inhibition [1]: 46.8%
- inhibition [2]: 25.9%

Structure (SMILES): CCC(CC)O[C@@H]1C=C(C(=O)O)C[C@H](Nc2ncccc2N)[C@H]1NC(C)=O
- AUC at 24 h [6]: 358 ng·h/mL
- half-life [7]: 30.6 min
- MRT [8]: 11.4 min
- half-life at 1 h (in vitro [9]): > 145 min
- half-life [10]: 94.2 min
- half-life at 1 h (in vitro [11]): > 145 min
- bioavailability [12]: 1.58%
- remaining at 0 h [13]: 100%
- inhibition [1]: 92.4%
- remaining at 10 min [14]: 95.1%
- MRT [15]: 127 min
- EC50 (Influenza A virus [16]): 12.7 µM
- remaining at 1 h (in vitro [17]): 85.5%
- EC50 (Influenza A virus [18]): 14.3 µM
- remaining at 2 h [19]: 102%
- inhibition [2]: 87.6%
- Tmax [20]: 19.8 min
- F [21]: 100%
- AUC at 24 h [22]: 4540 ng·h/mL
- remaining at 1 h [23]: 113%
- remaining at 1 h (in vitro [24]): 87.5%
- Cmax [25]: 253 ng/mL
- IC50 [26]: 0.32 µM
- remaining at 0.5 h [27]: 103%

Structure (SMILES): CCCC(=O)Nc1cccnc1N[C@H]1CC(C(=O)O)=C[C@@H](OC(CC)CC)[C@@H]1NC(C)=O
- inhibition [1]: 22.1%

Structure (SMILES): CCC(CC)O[C@@H]1C=C(C(=O)O)C[C@H](Nc2ncc(Br)cc2[N+](=O)[O-])[C@H]1NC(C)=O
- inhibition [1]: 54.3%

Structure (SMILES): CCCC(=O)Nc1cc(Br)cnc1N[C@H]1CC(C(=O)O)=C[C@@H](OC(CC)CC)[C@@H]1NC(C)=O
- inhibition [3]: 6.8%
- inhibition [1]: 41.5%

Structure (SMILES): CCC(CC)O[C@@H]1C=C(C(=O)O)C[C@H](Nc2nc(OC)ccc2NC(C)=O)[C@H]1NC(C)=O
- inhibition [3]: 10.1%
- inhibition [1]: 75.7%

Structure (SMILES): O=C(O)Cc1ccccc1Nc1c(Cl)cccc1Cl [DICLOFENAC]
- half-life at 1 h (in vitro [9]): 17.1 min

Structure (SMILES): CCC(CC)O[C@@H]1C=C(C(=O)O)C[C@H](Nc2ncc(Br)cc2NC(=O)C(C)C)[C@H]1NC(C)=O
- inhibition [3]: 19.1%
- inhibition [1]: 79.3%

Structure (SMILES): CC(C)[N+](C)(CCOC(=O)C1c2ccccc2Oc2ccccc21)C(C)C [PROPANTHELINE BROMIDE]
- remaining at 0 h [13]: 100%
- remaining at 10 min [14]: 68.2%
- remaining at 2 h [19]: 0.7%
- remaining at 1 h [23]: 10.1%
- remaining at 0.5 h [27]: 34.8%

Structure (SMILES): CCC(CC)O[C@@H]1C=C(C(=O)O)C[C@H](Nc2ncc(Br)cc2N)[C@H]1NC(C)=O
- inhibition [1]: 55.9%
- inhibition [2]: 26.8%

Structure (SMILES): CCC(CC)O[C@@H]1C=C(C(=O)O)C[C@H](Nc2ncccc2[N+](=O)[O-])[C@H]1NC(C)=O
- inhibition [3]: 9.1%
- inhibition [1]: 76.1%

Structure (SMILES): CCC(CC)O[C@@H]1C=C(C(=O)O)C[C@H](Nc2ccc([N+](=O)[O-])cn2)[C@H]1NC(C)=O
- inhibition [3]: 8.9%
- inhibition [1]: 87.1%

Structure (SMILES): CCC(CC)O[C@@H]1C=C(C(=O)O)C[C@H](N)[C@H]1NC(C)=O [OSELTAMIVIR CARBOXYLATE]
- EC50 (Influenza A virus [16]): 2.49 µM
- EC50 (Influenza A virus [18]): 67.5 µM
- CC50 at 72 h (in vitro [28]): > 1000 µM
